Source: the pKa sets of Baltruschat and Czodrowski (2020)

Details: acidic group

| SMILES | pKa |
| --- | --- |
| CCSC(C)(O)O | 12.1 |
| [O-]c1nc(O)nn1-c1ccccc1 | 12.2 |
| O=S1(=O)N=CNc2ccncc21 | 6.71 |
| CC#C/C=C/C(=O)O | 4.2 |
| CS(=O)(=O)c1ccc(S(=O)(=O)NCc2ccccc2)cc1 | 10.2 |
| Cc1ncc(CO)c(CO)c1O | 8.98 |
| Oc1c(Cl)cc(Cl)c(Cl)c1C[NH+]1CCCCC1 | 5.06 |
| OCC(Cl)Cl | 13.2 |
| CSC1=NC(C)(C)C(O)=N1 | 9.48 |
| Cc1ccc(Cl)c(C(=O)O)c1 | 3.12 |
| C/C(=N\O)NO | 10.8 |
| CC(=O)Nc1ccc(S(=O)(=O)Nc2nccc(C)n2)cc1 | 5.46 |
| [O-]c1cc(O)nc[nH+]1 | 5.4 |
| Cc1ccc([N+](=O)[O-])c(C(=O)O)c1 | 2.55 |
| C[C@H]([NH3+])CCC(=O)O | 4.13 |
| COc1ccc([Se]O)c([N+](=O)[O-])c1 | 10.7 |
| COc1ccc(C(=S)Nc2ccc(Cl)cc2)cc1 | 10.9 |
| CC(C)(S)C(C(=O)[O-])n1ccnc1Cc1ccccc1 (stereo unspecified) | 10.5 |
| Nc1nc(O)[n+]([C@@H]2C[C@@H](O)[C@H](CO)O2)cc1CO | 3.55 |
| C[N+](C)(C)CCCc1cccc(O)c1 | 9.64 |
| O=C1CSCC(=O)C1 | 4.34 |
| O=S(=O)([N-]c1ncc(Cl)cn1)c1ccc(O)cc1 | 8.84 |
| Cc1nc2c(O)ccc(O)c2n1C | 9.75 |

| SMILES | pKa |
| --- | --- |
| CCc1n[nH]c(CC)n1 | 10.2 |
| COc1nc(C)cc(O)[nH+]1 | 1.6 |
| COc1ccc(C(=O)O)cc1C | 4.35 |
| CN(C)C(=S)SCC(=O)O | 3.34 |
| O/N=C/c1ccc(O)cc1 | 8.78 |
| Nc1c2[nH]cnc2nc[n+]1[O-] | 9 |
| Oc1ccc2cnc3ccccc3c2c1 | 8.43 |
| NC(=O)C(N)Cc1ccccc1 (stereo unspecified) | 7.33 |
| OC(O)c1ccccn1 | 12.8 |
| Nc1c2[n-]cnc2nc[n+]1[O-] | 13 |
| CNc1cc[n+](O)cc1 | 3.85 |
| CC1CC(=O)N(O)C1(C)C (stereo unspecified) | 8.85 |
| Cc1ccccc1NCCS | 9.6 |
| Nc1nc2c(ncn2[C@@H]2C[C@@H](O)[C@H](CO)O2)c(O)[nH+]1 | -0.97 |
| C=CCC1(C2=CCCCC2)C(=O)[N-]C(=S)NC1=O | 11.7 |
| Cc1ncc2c(c1O)C(O)OC2 (stereo unspecified) | 8.75 |
| CC1(C)CC(=O)C(Br)C(=O)C1 | 3.1 |
| CCCCCCC(=O)O | 4.86 |
| N#CC(C#N)=NNc1ccccc1[N+](=O)[O-] | 5.8 |
| C[n+]1cc(O)cc2ccccc21 | 5.42 |
| O=[N+]([O-])c1ccc(NS(=O)(=O)c2ccccc2)cc1 | 6.63 |
| O=C(O)c1sccc1[N+](=O)[O-] | 2.68 |
| COc1c(Cl)cc(Cl)c(O)c1C(=O)NC1CC[NH+](C)CC1 | 6.02 |

| SMILES | pKa |
| --- | --- |
| O=[N+]([O-])Cc1ccccc1 | 6.77 |
| Cc1ccc(O)cc1[N+](C)(C)C | 8.28 |
| CC(C)(S)[C@@H](C(=O)[O-])n1ccnc1Cc1ccccc1 | 10.3 |
| NC(=O)CS(=O)(=O)NC(N)=O | 5.05 |
| CC(C)C([NH3+])C(=O)O (stereo unspecified) | 2.41 |
| N#CC(C#N)=C(C#N)NC1CCCCC1 | 6.01 |
| O=C(O)Cn1nnnc1-c1ccccc1 | 2.11 |
| CCN(CC)C(=S)NC(=O)c1ccc(Cl)cc1 | 8 |
| Cn1c(=O)c2cn[nH]c2n(C)c1=O | 9.26 |
| S=c1[nH]c(=S)c2[nH]cnc2[nH]1 | 5.02 |
| O=C1CC[C@@H](C(=O)O)N1 | 3.4 |
| CC(=O)c1cc([N+](=O)[O-])ccc1C(=O)O | 3.06 |
| CCC(Oc1ccccc1C)C(=O)O (stereo unspecified) | 3.43 |
| Oc1cc(O)c2ccccc2[nH+]1 | 0.76 |
| CSc1nc(N)c2[nH]cnc2n1 | 10.2 |
| Cc1cc(O)c(C(C)C)cc1C | 10.8 |
| Cc1cc(Br)ccc1C(=O)O | 3.77 |
| Oc1cc(Cl)cc(Cl)c1 | 8.07 |
| CNc1nc2ncncc2[nH]1 | 9.56 |
| O=[N+]([O-])c1ccccc1-c1nnn[nH]1 | 2.98 |
| O=[N+]([O-])c1ccc2cc(O)ccc2c1 | 7.69 |
| COc1ccc(NC(=S)c2ccc(OC)cc2)cc1 | 11.8 |
| O=C(O)c1cccc(I)c1 | 3.83 |

| SMILES | pKa |
| --- | --- |
| Cn1c([O-])nc(=O)c2[nH]cnc21 | 11.7 |
| O=[N+]([O-])C(CO)CO | 9.07 |
| Cc1cccc([Se]CC(=O)O)c1 | 3.78 |
| Cn1ncnc1/N=N/O | 4.45 |
| O=S(O)CCCc1ccccc1 | 2.05 |
| c1ccc(Nc2nnn[nH]2)cc1 | 6.3 |
| CCOc1ccccc1C(=O)O | 4.18 |
| O=C(c1ccc([N+](=O)[O-])cc1)c1cc[nH]n1 | 11.7 |
| CC(C)N(Cc1ccccc1O)C(C)C | 11.4 |
| O=C(O)c1cc([N+](=O)[O-])ccc1F | 2.73 |
| O=C(O)c1cc([N+](=O)[O-])ccc1CO | 3.14 |
| O=C(O)c1cncs1 | 2.99 |
| Nc1nc2nc[n-]c2c(N)[n+]1[O-] | 12 |
| Oc1ccccc1Cl | 8.4 |
| NNC(=O)c1ccccn1 | 11.8 |
| N#Cc1nn[nH]c1C#N | 1.47 |
| CCCP(=O)(CCC)CCC | 12.2 |
| Brc1cn[nH]c1 | 12.7 |
| O=C(O)CCCCc1ccccc1 | 4.88 |
| [NH3+][C@@H](CCCCN1C(=O)C[C@H]([NH3+])C1=O)C(=O)O | 2.5 |

Same assay, conditions: basic group

| SMILES | pKa |
| --- | --- |
| C/C=C1/CN2CC[C@]34C(=C(C(=O)OC)[C@H]1C[C@H]23)Nc1ccccc14 | 7.46 |
| CCc1cc(/N=N/c2ccc(N(C)C)cc2)ccc1C | 2.59 |
| [NH3+]c1ccc(-c2ncc(-c3ccc(Cl)cc3)o2)cc1 | -0.1 |
| CC([NH3+])C/C(N)=N/O (stereo unspecified) | 3.75 |
| NC(=O)CCCc1ccncc1 | 5.64 |
| Cn1cc(N)cc1C(=O)[O-] | 7 |
| CNCC(=O)N(C)C | 8.86 |
| Cc1ncc(CO)c(CO)c1O | 4.96 |
| CNCC(O)CO (stereo unspecified) | 9.55 |
| Cc1n[nH]c2c(NCc3ccccc3)ncnc12 | 4.95 |
| Nc1ccc([I+]c2ccccc2)cc1 | 1.66 |
| CC(C)CCSC(=N)c1ccccc1 | 8.43 |
| Cc1cc2ccccc2nc1C | 4.93 |
| CCN(CC)CC(=O)Nc1c(C)cc(C)cc1C | 7.9 |
| CN(C)CCC[NH+](C)C | 7.73 |
| N=C(c1ccccc1)c1ccc(O)cc1 | 6.45 |
| COc1ccc2c(c1)NCC[NH2+]2 | 1.93 |
| C=C(C)C(=O)NC(C)(C)CCN(C)C | 9.37 |
| Clc1ccnc(-c2ccccn2)c1 | 3.8 |
| CCCCCC/N=C/c1c(C)cnc(C)c1O | 6.22 |
| Cc1cc(Br)cc(C)c1N(C)C | 4.36 |
| CCN(CC)CC(C)Nc1c2ccc(Cl)cc2nc2ccc(OC)cc12 (stereo unspecified) | 9.65 |
| C/C(=N\O)NO | 4.95 |

| SMILES | pKa |
| --- | --- |
| CC(=O)Nc1ccc(S(=O)(=O)Nc2nccc(C)n2)cc1 | 0.9 |
| Cc1ccc(OC(=O)CCCN(C)C)cc1 | 9.53 |
| Cc1c[nH]c(C)c1C | 3.94 |
| CC(C)(S)C(C(=O)[O-])n1ccnc1Cc1ccccc1 (stereo unspecified) | 7 |
| CC1=Nc2ccccc2N=C(C)C1 | 3.85 |
| [S-]c1ncnc2nccnc12 | 6.81 |
| Cc1nc2c(O)ccc(O)c2n1C | 6.47 |
| CN(CC[NH3+])CC[NH+](C)C | 3.19 |
| c1ccc(-c2cc3c(-c4ccccc4)ccnc3c3ncccc23)cc1 | 4.69 |
| NCCCNCCC[NH3+] | 9.72 |
| NCc1ccccc1 | 9.36 |
| C[C@H]1C[C@@H]2CCC[C@@H]2N1C | 10.1 |
| Nc1c2[nH]cnc2nc[n+]1[O-] | 2.6 |
| CCN(CC)CCN=C(c1ccccc1C)c1ccccc1C | 8.8 |
| C[C@H](CCCNCc1ccccc1)[C@H]1CC[C@H]2[C@@H]3CC[C@@H]4C[C@H](O)CC[C@]4(C)[C@H]3C[C@H](O)[C@]12C | 9.07 |
| O=[N+]([O-])c1ccncc1 | 1.86 |
| Oc1ccc2cnc3ccccc3c2c1 | 5.35 |
| CNc1nc(C)nc2c1cnn2C | 5 |
| CN(C)c1ccc2ccccc2c1 | 4.57 |
| CCC1CSC(C(C)C)=N1 (stereo unspecified) | 5.28 |
| Cc1ncc2c(c1O)C(O)OC2 (stereo unspecified) | 4.3 |
| C#C[C@]1(O)C[C@@H](C)N(C)[C@@H]2CCCC[C@H]21 | 9.53 |
| CC(=O)Oc1ccccc1C(=O)NCC(=O)O | 3.77 |

| SMILES | pKa |
| --- | --- |
| N#CC(C#N)=NNc1ccccc1[N+](=O)[O-] | -0.76 |
| CN(C)Cc1cccc(NC(=O)/C=N/[O-])c1 | 9.12 |
| CC1[C@H](N)[C@H]1[NH3+] (stereo partly specified) | 5.9 |
| CCCN1CC(O[Si](C)(C)C)C1 | 8.89 |
| CCCCCCNCCC(=O)[O-] | 10.6 |
| Cc1cc(N)cc(C)c1[N+](=O)[O-] | 2.56 |
| Cc1ccc2ccccc2n1 | 5.69 |
| CC(C)(S)[C@@H](C(=O)[O-])n1ccnc1Cc1ccccc1 | 6.98 |
| Nc1cccnc1N | 6.84 |
| C[n+]1ccc([O-])nc1[O-] | 9.73 |
| Cc1ncc[nH+]c1C | -4.17 |
| Nc1ccc(-c2cnc(-c3ccc(Cl)cc3)o2)cc1 | 3.52 |
| Cc1ccccc1NC(=O)CN | 7.81 |
| CC(=O)NN=C1CCN(C)CC1 | 7.45 |
| Cc1c(Cn2ccnc2)n(C)c2ccc(C(=O)[O-])cc12 | 6.32 |
| CC1CNCCN1 (stereo unspecified) | 9.9 |
| [NH3+]CCc1ccncc1 | 4.98 |
| ClCCN1CCOCC1 | 6.27 |
| CSc1nc(N)c2[nH]cnc2n1 | 3.1 |
| COc1ccc(C2CCC[NH+]2C)cn1 (stereo unspecified) | 1.34 |
| C=CCC(C)(CN(CC)CC)OC(C)=O (stereo unspecified) | 9.85 |
| COc1ccc2c(c1OC(C)=O)[C@]13CCN(C)[C@H](C2)[C@@H]1CC[C@H](OC)C3 | 9.31 |
| Cc1cc([N+](=O)[O-])cc(C)c1N | 0.98 |

| SMILES | pKa |
| --- | --- |
| C[C@@H]1C[C@H](OC(=O)c2ccccc2)CC(C)(C)N1 | 8.97 |
| N[C@@H](Cc1ccccc1)C(=O)[O-] | 9.14 |
| CNc1nc2ncncc2[nH]1 | 4.78 |
| CCCOC(=O)c1ccc(N)cc1 | 2.49 |
| [O-]c1ccccc1C1=NCCN1 | 12.6 |
| O=[N+]([O-])c1ccc2cn[nH]c2c1 | 0.66 |
| CC(C)NCCC#N | 8 |
| O=C([O-])[C@@H]1Cc2[nH]cnc2CN1 | 8.58 |
| CCN(CC)CCSC1CCCCC1 | 8.11 |
| Brc1cnc2ccccc2c1 | -0.44 |
| [NH3+]c1ccccc1-c1nc2ccccc2s1 | -1.8 |
| CC(C)N(Cc1ccccc1O)C(C)C | 7.55 |
| Cc1cc(C)c2nc(C)cc(N)c2c1 | 10.4 |
| CSc1ccncc1 | 5.97 |
| Cc1cc(N[NH3+])nc2ccccc12 | 2.8 |
| NNC(=O)c1ccccn1 | 2.86 |
| CNC(C)=S | -1.9 |
| NCCc1ccncc1 | 9.37 |
| CCN(CC)CCC(OC(=O)c1ccccc1)c1ccccc1 (stereo unspecified) | 7.53 |
| CCCP(=O)(CCC)CCC | 4.9 |
| CN1CCCCC1 | 10.1 |
| Nc1cncc2ccccc12 | 6.28 |
| CN(C)c1cc[n+](C)c([O-])n1 | 4.2 |
